These results are taken from patent publication US20100075926A1, “ACTIVATION OF HISTONE DEACETYLASE 1 (HDAC1) PROTECTS AGAINST DNA DAMAGE AND INCREASES NEURONAL SURVIVAL” (priority 2008, published 2010).

Data set [1] deals with brain-derived neurotrophic factor (BDNF) expression in glioma cell line (C6). In words: BDNF expression in glioma cell line (C6). The class given is cell-based. The following applies: submicromolar concentrations, data not shown.
Another data set relates to primary cortical neurons. In words: γH2AX and Ki-67 immunostaining of primary cortical neurons treated with HDAC1 inhibitor. The data set is classed as cell-based. The following applies: 1 μM, 24 h, compared to vehicle (DMSO) controls. Here is the method:
(A, B) Primary cortical neurons were transfected with either HDAC1 siRNA or random sequence siRNA, along with GFP at a 7:1 ratio to label transfected neurons. Cells were fixed at 24 h, 48 h, and 72 h post-transfection and immunostained for γH2AX. GFP-positive neurons were scored for γH2AX immunoreactivity and for cell death based on nuclear condensation and neuritic integrity, as described in Methods. (A) Representative micrographs. HDAC1 siRNA or control (random sequence) siRNA transfected neurons are indicated by arrows. The HDAC1 siRNA transfected neurons display neuritic breakage. The inset is a magnification of the γH2AX staining of the neuron indicated by arrow and asterisk, showing γH2AX foci of varying sizes. Percentage of γH2AX and cell death are shown as averages from multiple sets ±S.D. It was noted that transfection of control siRNA per se appeared to cause a low but detectable level of γH2AX immunoreactivity and cell death. […] Controls were treated with equal amounts of vehicle (DMSO). Total numbers of γH2AX and Ki-67 positive neurons were quantified over 20 microscope fields (field diameter ˜900 μm). Scale bar=100 μm. […] Scale bar=[…].
Our findings raised the possibility that p25/cdk5 may cause both cell cycle reentry and DNA damage through inhibition of HDAC1 activity. We examined the effects of siRNA-mediated knockdown or pharmacological inhibition of HDAC1.

Another data set concerns leukemia patients. The following applies: phase I clinical trial; cited from earlier work.
For a further data set, the system named is WT mice. The data set can be described thus: Contextual fear conditioning in WT mice. The data set is classed as in vivo, mouse. As for the experimental part:
Fear conditioning. Fear conditioning experiments were carried out as previously described (Kim et al., 2007), using a fear conditioning apparatus (TSE Systems, Midland, Mich.).

On to `O=C(CCCCCCC(=O)Nc1ccccc1)NO` [SAHA, suberoylanilide hydroxamic acid], for which the “expression of brain-derived neurotrophic factor (BDNF)” value in data set [1] is “induced expression”.
`Nc1ccccc1NC(=O)c1ccc(CNC(=O)OCc2cccnc2)cc1` [MS-275]: in the data set on primary cortical neurons, the “aberrant expression of Ki-67 (Ki-67 positive neurons)” value is given as 1.8 fold increase and the “double strand DNA breaks (γH2AX positive neurons)” value amounted to 8.1 fold increase. Further, in the data set on leukemia patients, the “dose-limiting toxicity (DLT)” value was “neurologic toxicity manifesting as unsteady gait and somnolence”. Also, the “freezing behavior in contextual fear conditioning” value in the data set with WT mice (25 mg/kg IP daily for 10 days, vs saline) was “reduced freezing behavior”. For the same molecule, the “associative learning capability (contextual fear conditioning)” value in the data set on WT mice (12.5 or 25 mg/kg IP daily for 10 days) is on record as “impaired associative learning capability”.
